Laboratory results published in ChEMBL document CHEMBL1201862, “PubChem BioAssay data set” (2004).
Calls of active or inactive are those of the source.

Key:
[1] = molecular target: Disintegrin and metalloproteinase domain-containing protein 17 (Homo sapiens, UniProt P78536); test: exosite inhibitors of ADAM17, dose response, biochemical (AID 743260)
[2] = ADAM10 protease inhibitors, dose response, selectivity assay for ADAM17 exosite inhibitor project, biochemical, FRET peptide substrate, recombinant human ADAM10 (AID 743259);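 further: ADAM10 enzyme cleaving a FRET peptide substrate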
[3] = molecular target: ORF 73 (Human herpesvirus 8, UniProt O40947); test: inhibitors of C-LANA binding to LBS DNA, dose response, biochemical, fluorescence polarization, cherry-picked samples (AID 504725); design: species or system Human gammaherpesvirus 8;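 further: fluorescence polarization of a labeled DNA duplex reporting LANA DNA binding; potency is for inhibitors that block LANA binding to the DNA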
[4] = molecular target: Nonstructural protein 1 (Influenza A virus, UniProt Q194T2); type: functional, Influenza A virus (A/California/07/2009(H1N1))
[5] = molecular target: Genome polyprotein (dengue virus type 2, UniProt P29990); test: Dengue-2 NS5 methyltransferase inhibitors, primary screen, biochemical, confirmation dose response (AID 588689); type: functional
Genome polyprotein, sequence (P29990 2492-3391 limits assumed): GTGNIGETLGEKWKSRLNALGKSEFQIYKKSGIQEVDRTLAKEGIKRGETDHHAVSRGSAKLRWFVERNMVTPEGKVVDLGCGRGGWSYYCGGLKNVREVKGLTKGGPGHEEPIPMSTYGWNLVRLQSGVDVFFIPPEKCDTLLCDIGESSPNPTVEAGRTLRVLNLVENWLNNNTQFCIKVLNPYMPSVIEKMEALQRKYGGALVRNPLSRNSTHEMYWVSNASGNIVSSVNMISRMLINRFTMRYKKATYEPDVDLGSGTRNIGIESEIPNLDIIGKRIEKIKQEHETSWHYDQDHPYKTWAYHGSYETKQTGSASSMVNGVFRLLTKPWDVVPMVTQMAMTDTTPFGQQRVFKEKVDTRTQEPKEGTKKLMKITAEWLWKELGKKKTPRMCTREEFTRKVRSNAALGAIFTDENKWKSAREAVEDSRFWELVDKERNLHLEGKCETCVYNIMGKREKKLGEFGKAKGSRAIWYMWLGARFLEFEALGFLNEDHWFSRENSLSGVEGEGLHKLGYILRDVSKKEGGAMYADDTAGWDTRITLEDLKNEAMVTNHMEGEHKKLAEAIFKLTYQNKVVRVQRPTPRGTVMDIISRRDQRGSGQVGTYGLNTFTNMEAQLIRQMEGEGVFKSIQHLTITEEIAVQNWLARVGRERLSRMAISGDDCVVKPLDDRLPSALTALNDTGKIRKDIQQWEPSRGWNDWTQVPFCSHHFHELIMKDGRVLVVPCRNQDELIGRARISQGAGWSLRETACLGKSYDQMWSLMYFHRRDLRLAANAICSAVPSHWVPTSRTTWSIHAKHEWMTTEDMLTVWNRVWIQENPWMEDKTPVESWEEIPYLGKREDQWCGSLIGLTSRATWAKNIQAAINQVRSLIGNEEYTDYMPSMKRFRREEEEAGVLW

[6] = molecular target: T1, Small ubiquitin-related modifier 2 (Homo sapiens, UniProt P61956); test: SUMO2–SIM peptide binding inhibitors, dose response, selectivity assay for SUMO1 interaction inhibitor project, biochemical, fluorescence polarization, uHTS hits (AID 624385); type: functional; conditions: read-out: IC50_Mean
T1 sequence (P61956 whole entry): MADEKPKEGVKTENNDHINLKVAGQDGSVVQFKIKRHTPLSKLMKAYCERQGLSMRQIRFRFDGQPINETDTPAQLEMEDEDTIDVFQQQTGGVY

[7] = molecular target: T2, Small ubiquitin-related modifier 1 (Homo sapiens, UniProt P63165); test: inhibitors of SUMO1 peptide binding, dose response, biochemical, fluorescence polarization, uHTS hits (AID 624382); type: functional; conditions: read-out: IC50_Mean
T2 sequence (P63165 whole entry): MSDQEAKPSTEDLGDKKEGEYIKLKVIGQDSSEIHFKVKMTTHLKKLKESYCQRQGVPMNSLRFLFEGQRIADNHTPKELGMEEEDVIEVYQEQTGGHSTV

[8] = molecular target: T1, Small ubiquitin-related modifier 2; test: inhibitors of SUMO2 protein-protein interaction, dose response, selectivity assay for SUMO1 interaction inhibitor project, biochemical, FRET, human SUMO2, uHTS hits (AID 624384); type: functional; conditions: read-out: IC50_Mean
[9] = molecular target: T3, Fatty acid synthase (Homo sapiens, UniProt P49327); test: FAS thioesterase domain inhibitors, dose response, biochemical, endpoint fluorescence intensity, uHTS hits (AID 624327); type: functional;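 further: fluorescence from hydrolysis of an O-methyl fluorescein acyl ester substrate by the enzyme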
T3 sequence (P49327 whole entry, the tested form may be a part): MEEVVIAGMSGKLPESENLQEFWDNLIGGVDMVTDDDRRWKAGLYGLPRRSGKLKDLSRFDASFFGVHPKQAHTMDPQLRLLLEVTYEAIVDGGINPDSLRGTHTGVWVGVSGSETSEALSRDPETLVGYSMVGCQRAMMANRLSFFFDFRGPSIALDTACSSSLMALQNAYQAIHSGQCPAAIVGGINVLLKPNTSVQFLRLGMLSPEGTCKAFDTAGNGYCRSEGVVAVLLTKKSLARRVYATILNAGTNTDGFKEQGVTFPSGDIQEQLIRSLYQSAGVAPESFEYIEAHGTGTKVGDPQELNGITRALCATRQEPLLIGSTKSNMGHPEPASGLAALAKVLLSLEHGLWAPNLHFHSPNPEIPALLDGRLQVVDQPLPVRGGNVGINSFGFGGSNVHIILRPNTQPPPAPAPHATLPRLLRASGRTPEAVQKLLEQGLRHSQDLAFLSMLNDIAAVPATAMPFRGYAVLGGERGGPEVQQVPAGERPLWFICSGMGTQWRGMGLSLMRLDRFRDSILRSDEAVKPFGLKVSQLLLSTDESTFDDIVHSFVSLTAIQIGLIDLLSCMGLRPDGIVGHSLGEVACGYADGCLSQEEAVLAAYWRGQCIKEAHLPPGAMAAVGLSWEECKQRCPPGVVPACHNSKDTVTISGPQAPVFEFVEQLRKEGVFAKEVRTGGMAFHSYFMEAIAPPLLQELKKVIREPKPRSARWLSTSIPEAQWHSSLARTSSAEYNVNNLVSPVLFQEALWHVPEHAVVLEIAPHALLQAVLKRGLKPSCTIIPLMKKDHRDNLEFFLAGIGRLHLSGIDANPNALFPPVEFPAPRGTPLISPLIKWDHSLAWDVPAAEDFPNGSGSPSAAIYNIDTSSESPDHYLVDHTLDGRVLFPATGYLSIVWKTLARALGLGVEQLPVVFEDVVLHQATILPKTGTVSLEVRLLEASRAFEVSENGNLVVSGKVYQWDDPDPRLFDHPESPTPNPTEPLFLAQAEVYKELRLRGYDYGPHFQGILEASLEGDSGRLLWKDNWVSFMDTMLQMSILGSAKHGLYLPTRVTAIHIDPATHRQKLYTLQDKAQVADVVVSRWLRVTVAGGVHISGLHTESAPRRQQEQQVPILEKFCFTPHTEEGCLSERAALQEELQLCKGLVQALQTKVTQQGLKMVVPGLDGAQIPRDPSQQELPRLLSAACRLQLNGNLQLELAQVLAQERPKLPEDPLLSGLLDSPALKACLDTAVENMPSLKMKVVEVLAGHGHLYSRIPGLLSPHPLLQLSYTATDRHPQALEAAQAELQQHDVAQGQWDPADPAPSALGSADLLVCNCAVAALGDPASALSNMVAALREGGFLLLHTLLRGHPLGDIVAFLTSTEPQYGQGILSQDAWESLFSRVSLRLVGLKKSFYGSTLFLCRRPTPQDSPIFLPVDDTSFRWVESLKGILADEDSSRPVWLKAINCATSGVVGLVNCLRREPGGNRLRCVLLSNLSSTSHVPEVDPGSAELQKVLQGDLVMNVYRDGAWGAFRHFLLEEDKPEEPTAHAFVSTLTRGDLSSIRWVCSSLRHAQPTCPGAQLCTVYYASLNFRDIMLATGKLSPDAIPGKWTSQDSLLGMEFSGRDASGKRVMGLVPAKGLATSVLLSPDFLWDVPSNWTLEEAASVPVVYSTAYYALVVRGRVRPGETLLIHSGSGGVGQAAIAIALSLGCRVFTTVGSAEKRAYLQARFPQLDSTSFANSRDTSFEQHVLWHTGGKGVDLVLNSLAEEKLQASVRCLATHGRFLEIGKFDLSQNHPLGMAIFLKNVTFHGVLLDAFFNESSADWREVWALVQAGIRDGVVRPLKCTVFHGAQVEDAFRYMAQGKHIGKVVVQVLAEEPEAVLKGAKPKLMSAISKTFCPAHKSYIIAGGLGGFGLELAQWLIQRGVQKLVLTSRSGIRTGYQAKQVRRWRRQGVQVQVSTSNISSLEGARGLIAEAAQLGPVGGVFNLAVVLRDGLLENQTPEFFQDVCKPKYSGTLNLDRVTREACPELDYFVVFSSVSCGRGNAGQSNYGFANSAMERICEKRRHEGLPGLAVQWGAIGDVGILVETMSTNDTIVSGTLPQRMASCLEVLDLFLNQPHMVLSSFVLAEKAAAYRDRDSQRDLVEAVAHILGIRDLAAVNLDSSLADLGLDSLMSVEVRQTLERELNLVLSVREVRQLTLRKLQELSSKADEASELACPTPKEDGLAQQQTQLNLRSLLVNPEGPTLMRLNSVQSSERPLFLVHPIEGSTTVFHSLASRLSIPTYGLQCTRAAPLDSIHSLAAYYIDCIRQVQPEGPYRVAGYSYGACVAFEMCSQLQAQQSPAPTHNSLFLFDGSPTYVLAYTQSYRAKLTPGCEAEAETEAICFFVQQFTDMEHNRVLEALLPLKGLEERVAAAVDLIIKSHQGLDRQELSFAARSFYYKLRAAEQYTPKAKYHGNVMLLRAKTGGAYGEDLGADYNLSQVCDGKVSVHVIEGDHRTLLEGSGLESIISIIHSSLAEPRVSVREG

[10] = molecular target: T2, Small ubiquitin-related modifier 1; test: inhibitors of SUMO1 partner interactions, dose response, biochemical, FRET (AID 624383); type: functional; conditions: read-out: IC50_Mean
[11] = molecular target: T4, Sentrin-specific protease 8 (Homo sapiens, UniProt Q96LD8); type: functional
T4 sequence (Q96LD8 whole entry): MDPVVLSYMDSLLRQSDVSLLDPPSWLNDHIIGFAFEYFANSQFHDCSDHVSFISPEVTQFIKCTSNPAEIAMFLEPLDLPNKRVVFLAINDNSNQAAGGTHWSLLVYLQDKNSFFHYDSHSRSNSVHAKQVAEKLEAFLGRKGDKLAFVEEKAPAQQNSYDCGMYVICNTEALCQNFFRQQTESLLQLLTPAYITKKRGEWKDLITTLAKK

[12] = molecular target: T4, Sentrin-specific protease 8; type: functional; remark: listed apart in the source
[13] = molecular target: T5, Rac GTPase-activating protein 1 (Homo sapiens, UniProt Q9H0H5); test: MgcRacGAP GTPase-activating activity inhibitors, confirmation, biochemical, ADP Hunter fluorescence, primary and confirmatory (AID 624330); type: functional
T5 sequence (Q9H0H5 whole entry): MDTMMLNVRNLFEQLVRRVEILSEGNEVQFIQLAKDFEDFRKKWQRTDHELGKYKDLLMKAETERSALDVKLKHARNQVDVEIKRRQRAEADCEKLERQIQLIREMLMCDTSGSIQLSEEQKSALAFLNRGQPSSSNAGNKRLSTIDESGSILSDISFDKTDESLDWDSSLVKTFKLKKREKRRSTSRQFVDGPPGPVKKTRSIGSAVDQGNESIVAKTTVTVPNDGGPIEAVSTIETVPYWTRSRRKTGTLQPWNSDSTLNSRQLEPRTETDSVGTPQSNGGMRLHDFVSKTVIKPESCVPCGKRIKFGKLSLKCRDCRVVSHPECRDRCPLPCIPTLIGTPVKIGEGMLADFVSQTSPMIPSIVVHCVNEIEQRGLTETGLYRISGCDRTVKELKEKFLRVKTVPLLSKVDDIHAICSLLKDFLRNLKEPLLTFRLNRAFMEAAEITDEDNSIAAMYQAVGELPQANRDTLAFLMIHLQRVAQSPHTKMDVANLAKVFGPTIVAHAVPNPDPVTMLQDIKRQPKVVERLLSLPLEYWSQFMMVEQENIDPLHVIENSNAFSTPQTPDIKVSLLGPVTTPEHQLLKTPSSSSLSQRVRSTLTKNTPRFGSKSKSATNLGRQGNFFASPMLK

[14] = molecular target: T3, Fatty acid synthase; test: FAS thioesterase domain inhibitors, dose response, biochemical, kinetic fluorescence intensity (AID 624326); type: functional;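 further: rate of fluorescence rise from hydrolysis of a fluorogenic O-methyl fluorescein ester substrate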
[15] = molecular target: Matrix metalloproteinase-14 (Homo sapiens, UniProt P50281); test: Dose Response confirmation of uHTS hits for a small molecule inhibitors of MT1-MMP activation in a fluorescence assay set 1.; type: functional
[16] = molecular target: T6, Histone-lysine N-methyltransferase NSD2 (Homo sapiens, UniProt O96028); type: biochemical
T6 sequence (O96028 whole entry): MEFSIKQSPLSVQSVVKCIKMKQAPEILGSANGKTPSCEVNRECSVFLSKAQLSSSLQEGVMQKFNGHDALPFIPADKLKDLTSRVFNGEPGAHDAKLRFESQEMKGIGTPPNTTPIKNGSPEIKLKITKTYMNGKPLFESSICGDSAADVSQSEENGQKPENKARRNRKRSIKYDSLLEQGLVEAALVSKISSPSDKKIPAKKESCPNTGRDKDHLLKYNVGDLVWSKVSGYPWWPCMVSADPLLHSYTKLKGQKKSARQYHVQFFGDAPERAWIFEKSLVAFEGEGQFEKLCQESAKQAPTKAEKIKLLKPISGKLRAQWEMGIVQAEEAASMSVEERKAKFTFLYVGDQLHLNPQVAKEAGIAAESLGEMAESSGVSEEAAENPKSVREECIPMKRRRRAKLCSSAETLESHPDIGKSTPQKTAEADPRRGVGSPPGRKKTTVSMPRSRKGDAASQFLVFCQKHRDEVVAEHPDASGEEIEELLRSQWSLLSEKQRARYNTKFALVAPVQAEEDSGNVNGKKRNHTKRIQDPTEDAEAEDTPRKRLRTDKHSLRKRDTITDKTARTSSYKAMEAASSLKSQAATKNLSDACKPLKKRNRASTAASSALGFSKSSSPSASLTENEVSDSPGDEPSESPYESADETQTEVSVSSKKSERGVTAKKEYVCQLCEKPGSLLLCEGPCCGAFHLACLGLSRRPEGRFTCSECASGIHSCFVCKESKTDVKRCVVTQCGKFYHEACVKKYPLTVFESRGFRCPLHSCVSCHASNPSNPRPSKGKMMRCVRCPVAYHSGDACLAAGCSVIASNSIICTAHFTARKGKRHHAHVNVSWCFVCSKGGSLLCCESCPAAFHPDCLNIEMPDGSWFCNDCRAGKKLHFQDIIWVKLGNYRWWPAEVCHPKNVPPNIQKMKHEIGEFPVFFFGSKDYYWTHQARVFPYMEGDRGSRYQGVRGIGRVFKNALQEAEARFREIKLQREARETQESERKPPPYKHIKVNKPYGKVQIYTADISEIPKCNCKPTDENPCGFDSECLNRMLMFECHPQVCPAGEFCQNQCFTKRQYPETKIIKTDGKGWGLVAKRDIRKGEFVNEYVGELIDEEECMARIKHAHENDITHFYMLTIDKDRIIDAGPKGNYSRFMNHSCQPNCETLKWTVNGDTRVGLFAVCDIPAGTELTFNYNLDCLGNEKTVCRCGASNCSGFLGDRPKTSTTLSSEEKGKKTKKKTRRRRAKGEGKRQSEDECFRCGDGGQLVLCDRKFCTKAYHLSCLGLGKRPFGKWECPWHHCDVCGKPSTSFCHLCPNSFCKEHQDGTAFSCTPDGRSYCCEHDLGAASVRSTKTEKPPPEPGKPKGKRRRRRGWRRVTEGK

[17] = molecular target: T7, Polyadenylate-binding protein 1 (Homo sapiens, UniProt P11940); test: PABP1 MLLE–PAM2 interaction inhibitors, dose response, miRNA deadenylation inhibitor project, biochemical, fluorescence polarization, Cy5-PAM2 peptide, secondary (AID 602260); type: functional; conditions: read-out: IC50_Mean
T7 sequence (P11940 whole entry): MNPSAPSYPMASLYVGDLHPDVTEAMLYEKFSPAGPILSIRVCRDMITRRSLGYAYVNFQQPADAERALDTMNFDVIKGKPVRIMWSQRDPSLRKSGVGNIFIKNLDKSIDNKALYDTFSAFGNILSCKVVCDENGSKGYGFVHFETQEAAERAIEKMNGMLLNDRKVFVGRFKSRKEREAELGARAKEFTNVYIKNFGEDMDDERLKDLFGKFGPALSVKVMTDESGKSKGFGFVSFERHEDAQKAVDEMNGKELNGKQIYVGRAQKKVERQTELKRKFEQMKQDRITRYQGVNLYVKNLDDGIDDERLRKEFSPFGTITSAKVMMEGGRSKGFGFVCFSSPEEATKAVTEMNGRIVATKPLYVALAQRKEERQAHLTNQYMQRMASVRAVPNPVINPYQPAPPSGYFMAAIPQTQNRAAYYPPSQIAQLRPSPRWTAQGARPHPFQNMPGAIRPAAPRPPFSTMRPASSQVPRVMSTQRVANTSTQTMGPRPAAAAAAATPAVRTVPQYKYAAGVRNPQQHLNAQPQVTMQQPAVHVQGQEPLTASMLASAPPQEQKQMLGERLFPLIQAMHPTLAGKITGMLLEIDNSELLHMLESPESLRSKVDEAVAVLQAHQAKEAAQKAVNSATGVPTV

[18] = molecular target: T7, Polyadenylate-binding protein 1; test: PABP1 MLLE–PAM2 binding inhibitor potency, dose response, biochemical, fluorescence polarization, FITC-PAM2 peptide (AID 602259); type: functional; conditions: read-out: IC50_Mean
[19] = human group III sPLA2 inhibitors, dose response, biochemical, QFRET, IC50 (AID 743457);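 further: green fluorescence rise as the enzyme cleaves BODIPY PC-A2 in liposomes; potency for inhibition of the enzyme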
[20] = system: HeLa; test: HeLa cell cytotoxicity, dose response, cytotoxicity control, ATP luminescence, cherry-pick samples (AID 687004); type: functional, cell-based; conditions: Homo sapiens
[21] = system: HEK293; test: HEK293T cell cytotoxicity, dose response, cytotoxicity control, ATP luminescence, cherry-pick samples (AID 687005); type: functional, cell-based; conditions: Homo sapiens;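 further: cells exposed to compound for 48 hours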
[22] = HEK293 Cytotoxicity Assay Measured in Cell-Based System Using Plate Reader - 7071-01_Inhibitor_Dose_CherryPick_Activity_Set2.; type: functional
[23] = system: A549; test: A549 cell toxicity, dose response, cytotoxicity control, plate reader, cherry-pick samples (AID 687028); type: functional, cell-based; conditions: Homo sapiens
[24] = molecular target: NS3 (Hepatitis C virus, UniProt A3EZJ3); test: HCV NS3 helicase inhibitor potency, dose response, biochemical, fluorescence polarization, ChemBridge library (AID 743264)
[25] = T. cruzi growth inhibition in host cells, dose response, cell-based, plate reader, dry powder, set 2 (AID 652275); type: functional
[26] = A549 cell cytotoxicity, dose response, cytotoxicity control, plate reader, cherry-pick, antagonist series (AID 743412); type: functional, cell-based
[27] = LGR2 antagonists, dose response, cell-based, HEK293, CRE-luciferase reporter, cherry pick (AID 743342); type: functional

Disintegrin and metalloproteinase domain-containing protein 17, sequence (P78536 whole entry, the tested form may be a part): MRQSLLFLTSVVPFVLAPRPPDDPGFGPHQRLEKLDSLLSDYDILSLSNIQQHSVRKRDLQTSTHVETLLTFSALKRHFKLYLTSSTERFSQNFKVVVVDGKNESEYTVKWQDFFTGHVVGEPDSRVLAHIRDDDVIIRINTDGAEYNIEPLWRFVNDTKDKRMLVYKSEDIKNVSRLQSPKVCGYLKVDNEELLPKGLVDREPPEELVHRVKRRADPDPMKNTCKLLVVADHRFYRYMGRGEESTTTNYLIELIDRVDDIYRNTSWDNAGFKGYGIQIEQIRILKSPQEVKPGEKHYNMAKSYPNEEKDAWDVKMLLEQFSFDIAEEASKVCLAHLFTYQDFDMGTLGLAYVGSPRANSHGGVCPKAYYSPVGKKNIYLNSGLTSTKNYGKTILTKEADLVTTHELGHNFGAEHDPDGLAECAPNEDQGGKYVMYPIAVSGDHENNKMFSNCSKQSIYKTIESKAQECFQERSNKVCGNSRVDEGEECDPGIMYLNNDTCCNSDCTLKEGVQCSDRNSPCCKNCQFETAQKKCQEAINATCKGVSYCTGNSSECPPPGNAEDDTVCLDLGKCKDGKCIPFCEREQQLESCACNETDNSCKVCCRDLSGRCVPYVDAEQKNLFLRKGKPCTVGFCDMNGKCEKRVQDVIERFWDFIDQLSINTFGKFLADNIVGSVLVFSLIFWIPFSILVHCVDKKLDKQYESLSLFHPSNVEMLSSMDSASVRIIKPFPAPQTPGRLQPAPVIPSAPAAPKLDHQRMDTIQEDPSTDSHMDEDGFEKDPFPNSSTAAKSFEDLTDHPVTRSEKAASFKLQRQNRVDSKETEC

With `CCOc1ccc(S(=O)(=O)Nc2ccc(F)cc2)c(C)c1C` as the molecule, how does the IC50 [1] read?
The IC50 was > 69.5 µM (inactive).

And the IC50 [2]?
The IC50 was > 7.72 µM (active).

Which AC50 [3] does the source give for `Cc1ccccc1C1=C/C(=C(\SS/C(C(=O)c2ccc(OCC(=O)O)c(Cl)c2Cl)=C2\C=C(c3ccccc3C)SS2)C(=O)c2ccc(OCC(=O)O)c(Cl)c2Cl)SS1` here?
Its AC50 is 63.2 µM (active).

And the IC50 [4]?
Its IC50 is 16.1 µM (active).

What about the IC50 [5] of the same molecule?
Its IC50 is 9.25 µM (active).

What about the IC50 [6] of the same molecule?
The IC50 was 1.51 µM (active).

What about the IC50 [7] of the same molecule?
Its IC50 is 2.48 µM (active).

What about the IC50 [8] of the same molecule?
The IC50 was 2.65 µM (active).

And the IC50 [9]?
Its IC50 is 8.12 µM (active).

What about the IC50 [10] of the same molecule?
The IC50 was 50.2 µM (inactive).

And the IC50 [11]?
The IC50 was 9.29 µM (active).

What about the IC50 [12] of the same molecule?
Its IC50 is 56.9 µM (active).

And the IC50 [13]?
Its IC50 is 61.1 µM (active).

What about the IC50 [14] of the same molecule?
Its IC50 is 6.62 µM (active).

What about the IC50 [15] of the same molecule?
Its IC50 is 22.7 µM (inactive).

What about the AC50 [16] of the same molecule?
The AC50 was 6.35 µM (active).

For `Cc1ccc(NC(=S)N/N=C2/CCCCc3ccccc32)cc1`, which IC50 [17] is on record?
Its IC50 is > 66 µM (inactive).

What about the IC50 [18] of the same molecule?
Its IC50 is > 66 µM (inactive).

What about the IC50 [19] of the same molecule?
The IC50 was > 122 µM (inactive).

Which AC50 [20] does the source give for `O=C(C[C@@H]1CC[C@H]2[C@@H](COC[C@H](O)CN2Cc2ccc(Oc3ccccc3)cc2)O1)Nc1nccs1` here?
Its AC50 is 43.9 µM (active).

And the AC50 [21]?
The AC50 was 7.07 µM (active).

And the AC50 [22]?
Its AC50 is 7.07 µM (active).

For `C[C@H]1CCCCO[C@H](CN(C)C(=O)Nc2ccc(C(F)(F)F)cc2)[C@@H](C)CN([C@@H](C)CO)C(=O)c2cc(NC(=O)C3CCCCC3)ccc2O1`, which AC50 [23] is on record?
Its AC50 is 20.8 µM (active).

For `Cc1ccc(N2C(=O)NC(=O)/C(=C/c3ccc(-c4cccc(C(=O)O)c4)o3)C2=O)cc1`, which IC50 [24] is on record?
The IC50 was 14.8 µM (inactive).

With `CN(C)CC#Cc1cccc(-c2nc(C(=O)N[C@@H]3CCN(Cc4ccccc4)C3)cc3c2[C@@H](CCO)N([S+]([O-])C(C)(C)C)C3)c1` (some centres not stated) as the molecule, how does the AC50 [25] read?
Its AC50 is 0.0256 µM (active).

What does the source list for `C[C@H]1CCCCO[C@@H](CN(C)C(=O)Nc2ccc3c(c2)OCO3)[C@@H](C)CN([C@@H](C)CO)C(=O)c2cc(NC(=O)NC3CCCCC3)ccc2O1`?
AC50 [26]: 35.3 µM (active); AC50 [27]: 16.9 µM (active)
